The values below come from patent publication US20220409629A1, “BENZODIAZEPINE DERIVATIVES FOR TREATING A RESPIRATORY SYNCYTIAL VIRUS (RSV) INFECTION” (priority 2019, published 2022).

Series [1] deals with RSV. The conditions noted are these: Antimicrobial Agents and Chemotherapy, September 2007, 3346-3353; cited from earlier work.
Series [2] deals with RSV A2. Briefly: RSV plaque reduction assay. The series is classed as cell-based, respiratory syncytial virus (RSV). The conditions noted are these: Hep-G2 cells, RSV A2, mean of at least two experiments. The essentials:
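RSV A2 (100 PFU/well) premixed with eight serial compound dilutions, added to confluent Hep-G2 monolayers for 2 h at 37° C, then held 2 days under CMC overlay containing compound (DMEM, 2% FBS). Plaques immunostained (HRP/TrueBlue) and counted; EC50 is 50% reduction versus virus control from 4-parameter fit, mean of ≥2 experiments.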
Background: In a plaque reduction assay, fewer plaques than in the control indicate reduced infectivity or spread.

For series [3], the system named is Hep-G2 cells. Briefly: Cell cytotoxicity CC50. The conditions noted are these: mean of at least two experiments. The format is cell-based.
A short description of series [4]: Cell cytotoxicity CC50. The format is cell-based. The conditions noted are these: human; mean of at least two experiments.
The nature of series [5]: Liver microsomal stability, rat. The series is classed as in vitro ADME. The conditions noted are these: rat liver microsomes, 0.5 mg/mL protein, 1 μM compound, NADPH, >80% remaining at 45 min denoted >140. The essentials: (§1)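 Pooled liver microsomes (0.5 mg/mL protein) in 0.1 M phosphate pH 7.4 with 1 μM compound (0.25% DMSO), started with 1 mM NADPH at 37° C; sampled 0-45 min, minus-NADPH control 45 min. LC-MS/MS depletion slope gave t1/2 and CLint.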
On the technique in general: Liver microsomes are a subcellular fraction often used to study metabolism.

Series [6] is described as follows: Liver microsomal stability, dog. The series is classed as in vitro ADME. Conditions: dog liver microsomes, 0.5 mg/mL protein, 1 μM compound, NADPH, >80% remaining at 45 min denoted >140. The essentials: as §1
A short description of series [7]: Liver microsomal stability, human. Conditions: human liver microsomes, 0.5 mg/mL protein, 1 μM compound, NADPH, >80% remaining at 45 min denoted >140. The format is in vitro ADME. The method in brief:
as §1

The nature of series [8]: Liver hepatocyte stability, rat. The series is classed as in vitro ADME. The conditions noted are these: rat hepatocytes, 3 μM compound, 60 min, >80% remaining at 60 min denoted >186, read-out: Liver Hepatocyte Stability: t1/2 (min). How it is done: (§2) Cryopreserved pooled hepatocytes were purchased from a reputable commercial supplier and stored in liquid nitrogen prior to use. Williams E media supplemented with 2 mM L-glutamine and 25 mM HEPES and test compound (final substrate concentration 3 μM; final DMSO concentration 0.25%) are pre-incubated at 37° C. prior to the addition of a suspension of cryopreserved hepatocytes (final cell density 0.5×10^6 viable cells/mL in Williams E media supplemented with 2 mM L-glutamine and 25 mM HEPES) to initiate the reaction. The final incubation volume is 500 μL. Two control compounds were included with each species, alongside appropriate vehicle control. The reactions are stopped by transferring 50 μL of incubate to 100 μL acetonitrile containing internal standard at the appropriate time points. Samples were removed at 6 time points (0, 5, 15, 30, 45 and 60 min) over the course of a 60 min experiment. The termination plates are centrifuged at 2500 rpm at 4° C. for 30 min to precipitate the protein. Following protein precipitation, the sample supernatants were combined in cassettes of up to 4 compounds and analysed using generic LC-MS/MS conditions. From a plot of ln peak area ratio (compound peak area/internal standard peak area) against time, the gradient of the line is determined. Subsequently, half-life (t1/2) and intrinsic clearance (CLint) were calculated.

A short description of series [9]: Liver hepatocyte stability, dog. The format is in vitro ADME. Conditions: dog hepatocytes, 3 μM compound, 60 min, >80% remaining at 60 min denoted >186, read-out: Liver Hepatocyte Stability: t1/2 (min). As to the method: as §2
Series [10] is described as follows: Liver hepatocyte stability, human. The series is classed as in vitro ADME. Conditions: human hepatocytes, 3 μM compound, 60 min, >80% remaining at 60 min denoted >186, read-out: Liver Hepatocyte Stability: t1/2 (min). As to the method:
as §2

Series [11] can be described thus: Rat pharmacokinetics in vivo. The conditions noted are these: male Sprague Dawley rats. How it is done:
The pharmacokinetics of compounds were studied in vivo in rats at doses of 1 mg/kg (IV) and 10 mg/kg (PO).
Male rats (Sprague Dawley) surgically prepared with a jugular vein cannula were treated with experimental compounds via intravenous administration (IV; n=3; 1 mg/kg) or oral administration (PO; n=3; 10 mg/kg). Compounds were formulated as a solution in 40:60 dimethylacetamide:saline (IV administration), a suspension in 1% methyl cellulose (viscosity: 15 cP), 0.1% Tween80 in water (PO administration: Example 3), a solution in 10% DMSO/10% Cremaphor/80% water (PO administration: Examples 4, 11, 21, 23, 25, 26, 32) or a solution in 10% DMSO/20% Cremaphor/70% water (PO administration: Examples 19, 20, 22, 24, 30). […] Serial blood samples were collected via the cannula at 0.02, 0.08, 0.25, 0.5, 1, 2, 4, 6, 8 and 24 h post IV dosing of compound, and at 0.08, 0.25, 0.5, 1, 2, 4, 6, 8 and 24 h post oral dosing of compound, and plasma was prepared by centrifugation and stored immediately at −80° C. Samples were subsequently thawed, prepared for analysis by protein precipitation with acetonitrile, and analysed by tandem LCMS using electrospray ionisation using a matrix-matched calibration curve. PK parameters were calculated from the resulting data.

Take `O=C(Nc1ccccc1F)N[C@H]1N=C(c2ccccc2)c2ccccc2NC1=O` [RSV604]: the anti-RSV activity result in [1] is “sub-micromolar”.
“3-[6-(Cyclopropylamino)-2-fluoropyridin-3-yl]-1-(oxetan-3-yl)-N-[(3S)-2-oxo-5-phenyl-1,3-dihydro-1,4-benzodiazepin-3-yl]pyrazole-4-carboxamide [Example 37]”: the concentration for a half-maximal effect (EC50) (usually the midpoint of the concentration-response curve) in series [2] was determined as 78 nM. The cytotoxic concentration (CC50) (as a rule, the concentration giving 50% cytotoxicity) in series [3] is over 25000 nM.
In the case of `O=C(N[C@H]1N=C(c2ccccc2)c2ccccc2NC1=O)c1cnn(C2CCOCC2)c1-c1ccc(NC2CC2)nc1F` [Example 20, 5-[6-(Cyclopropylamino)-2-fluoropyridin-3-yl]-N-[(3S)-2-oxo-5-phenyl-1,3-dihydro-1,4-benzodiazepin-3-yl]-1-(oxan-4-yl)pyrazole-4-carboxamide], in series [2] (human respiratory syncytial virus, HepG2), a half-maximal response (EC50) required 59 nM. The CC50 in [4] is over 25000 nM. For the same molecule, the half-life in series [5] (pH 7.4, read-out: Liver Microsomal Stability: t1/2 (min), rat) was 116 min; in series [6] (pH 7.4, read-out: Liver Microsomal Stability: t1/2 (min), dog), 325 min; in series [7] (pH 7.4, read-out: Liver Microsomal Stability: t1/2 (min), human), 83.1 min; in series [8], 115 min; in series [9] it was over 186 min; in series [10], 190 min. The half-life was 1.5 h in series [11] (rat, in vivo, IV 1 mg/kg, read-out: IV t½ (converted)) and 1.4 h in [11] (rat, in vivo, PO 10 mg/kg, read-out: PO t½ (converted)). Moreover, in [11] (8 h, doses 1 mg/kg (IV) and 10 mg/kg (PO)), the “C 8 h” value worked out at 25.7 ng/mL. Further, the Vd – broadly, the apparent volume that relates the amount in the body to the concentration in plasma or blood – in series [11] (rat, in vivo, IV 1 mg/kg) came out at 2.9 L/kg. Also, the clearance (in general, the volume of plasma or blood freed of the substance per unit of time) in series [11] (rat, in vivo, IV 1 mg/kg) amounted to 32.9 mL/min/kg. The bioavailability (as a rule, dose-corrected exposure relative to a reference, in per cent) in series [11] (rat, in vivo, IV 1 mg/kg, PO 10 mg/kg) was 23.9%. For the same molecule, in series [11] (rat, in vivo, PO 10 mg/kg, read-out: PO AUClast), the AUC(0-t) stood at 1170 ng·h/mL. Moreover, the concentration in series [11] (rat, in vivo, doses 1 mg/kg (IV) and 10 mg/kg (PO)) peaked (Cmax) at 258 ng/mL.
“3-[6-(Cyclopropylamino)-2-fluoropyridin-3-yl]-N-[(3S)-9-fluoro-2-oxo-5-phenyl-1,3-dihydro-1,4-benzodiazepin-3-yl]-1-(oxetan-3-yl)pyrazole-4-carboxamide [Example 36]” showed an EC50 in [2] of 45 nM. This molecule had a 50% cytotoxic concentration (CC50) in series [3] of over 25000 nM. Also, in series [5], the “Liver Microsomal Stability: t1/2 (min); rat” value amounted to 93.2 min. Besides, the “Liver Microsomal Stability: t1/2 (min); dog” value in series [6] stood at 191 min. The “Liver Microsomal Stability: t1/2 (min); human” value in series [7] is reported as 68.5 min.
